How the values were obtained:
Assay type in all cases: binding
[1] = test system: PRTN_I; test: Inhibition of probe labeling at screening concentration (Table 1); conditions: 500 μM
Protocol: (§1) Cells were resuspended in cold PBS on ice and sonicated with a probe sonicator to achieve lysis. 200 μL of lysate containing 5 mg/ml proteome was treated with 2 μL of 100× compound stock in a 2-mL deep-well plate. The treated lysate was subsequently incubate at 25° C. for 1 hr with shaking at 600 rpm. The treated lysate was further incubated with 2 μL of 10 mM desthiobiotin iodoacetamide probe at 25° C. for 1 hr with shaking at 600 rpm. Next, the lysate was further treat with 20 μL of solution of PBS containing 11 mM MgSO4 and 2.5% Turbonuclease stock and incubated at 25° C. for 20 minutes with shaking at 600 rpm. 1.7 mL ice-cold acetone was added to each well and incubated at −20° C. for 2 hr, followed by max speed (4200 rpm) spin for 45 min. Acetone was then decanted and the plates were blotted to remove acetone. The plates were then dried in open air for 20 minutes. After drying, the plates were then covered with foil seal and stored at −80° C. overnight.

[2] = test system: PRTN_J; test: as above; conditions: 500 μM
Protocol: as §1

[3] = test system: PRTN_G; test: as above; conditions: 500 μM
Protocol: as §1

[4] = test system: PRTN_E; test: as above; conditions: 500 μM
Protocol: as §1

[5] = test system: PRTN_C; test: as above; conditions: 500 μM
Protocol: as §1

[6] = test system: PRTN_F; test: as above; conditions: 500 μM
Protocol: as §1

[7] = test system: PRTN_D; test: as above; conditions: 500 μM
Protocol: as §1

[8] = test system: PRTN_B; test: as above; conditions: 500 μM
Protocol: as §1

[9] = test system: PRTN_A; test: as above; conditions: 500 μM
Protocol: as §1

[10] = test system: PRTN_H; test: as above; conditions: 500 μM
Protocol: as §1

[11] = test system: PRTN_K; test: as above; conditions: 500 μM
Protocol: as §1

[12] = target: CRBN-287 (Homo sapiens, UniProt Q96SW2); test: as above; parameters: endogenous in cells; host or cells: cell lysate; conditions: native folded protein, read-out: Percentage inhibition of probe labeling, CRBN_287
Sequence of CRBN-287 (Q96SW2 whole entry): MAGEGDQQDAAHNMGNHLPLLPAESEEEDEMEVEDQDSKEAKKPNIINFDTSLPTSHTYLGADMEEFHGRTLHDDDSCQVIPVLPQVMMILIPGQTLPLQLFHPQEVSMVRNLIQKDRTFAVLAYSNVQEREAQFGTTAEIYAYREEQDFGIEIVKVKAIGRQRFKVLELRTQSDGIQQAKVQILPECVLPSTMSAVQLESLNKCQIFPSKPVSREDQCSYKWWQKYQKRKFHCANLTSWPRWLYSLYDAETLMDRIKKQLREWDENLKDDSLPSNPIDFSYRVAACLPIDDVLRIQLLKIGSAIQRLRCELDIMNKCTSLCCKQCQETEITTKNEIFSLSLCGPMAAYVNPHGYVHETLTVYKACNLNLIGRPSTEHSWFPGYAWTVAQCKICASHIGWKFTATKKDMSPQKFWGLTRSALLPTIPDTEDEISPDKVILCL
Protocol: as §1

[13] = target: CRBN-318 (Homo sapiens, UniProt Q96SW2); test: as above; parameters: endogenous in cells; host or cells: cell lysate; conditions: native folded protein, read-out: Percentage inhibition of probe labeling, CRBN_318
Sequence of CRBN-318 (Q96SW2 whole entry): as above
Protocol: as §1

[14] = target: T1, CRBN Cys287 (Homo sapiens, UniProt Q96SW2); test: Inhibition of iodoacetamide probe labeling of CRBN cysteines, cell lysate (Table 3A)
T1 construct: endogenous in cells
T1 sequence (Q96SW2 whole entry): as above
Protocol: (§2) “X@Y” means that x % inhibition of iodoacetamide probe labeling was observed by treatment of cell lysate with the give compound in each row of the table for 1 h at a concentration of y micromolar. There was consistently high inhibition at C318 in addition to C287, which can be attributed to an allosteric inhibition.

[15] = target: T2, CRBN Cys188 (Homo sapiens, UniProt Q96SW2); test: as above; conditions: cell lysate, 1 h
T2 construct: endogenous in cells
T2 sequence (Q96SW2 whole entry): as above
Protocol: as §2

[16] = target: T3, CRBN Cys366 (Homo sapiens, UniProt Q96SW2); test: as above; conditions: read-out: % inhibition of iodoacetamide probe labeling, Cys366
T3 construct: endogenous in cells
T3 sequence (Q96SW2 whole entry): as above
Protocol: as §2

[17] = target: T4, CRBN Cys219 (Homo sapiens, UniProt Q96SW2); test: as above; conditions: read-out: % inhibition of iodoacetamide probe labeling, Cys219
T4 construct: endogenous in cells
T4 sequence (Q96SW2 whole entry): as above
Protocol: as §2

[18] = target: T5, CRBN Cys234 (Homo sapiens, UniProt Q96SW2); test: as above; conditions: read-out: % inhibition of iodoacetamide probe labeling, Cys234
T5 construct: endogenous in cells
T5 sequence (Q96SW2 whole entry): as above
Protocol: as §2

[19] = target: T6, CRBN Cys318 (Homo sapiens, UniProt Q96SW2); test: as above
T6 construct: endogenous in cells
T6 sequence (Q96SW2 whole entry): as above
Protocol: as §2

[20] = target: T7, CRBN Cys205 (Homo sapiens, UniProt Q96SW2); test: as above; conditions: read-out: % inhibition of iodoacetamide probe labeling, Cys205
T7 construct: endogenous in cells
T7 sequence (Q96SW2 whole entry): as above
Protocol: as §2

[21] = 7.8 micromolar, cell lysate, 1 h
[22] = read-out: % inhibition of iodoacetamide probe labeling, Cys287
[23] = 500 micromolar, cell lysate, 1 h

inhibition at 500 µM [12] [%] | inhibition at 500 µM [13] [%] | Structure (SMILES) | Percentage inhibition of probe labeling, PRTN_I [1] [%] | Percentage inhibition of probe labeling, PRTN_J [2] [%] | Percentage inhibition of probe labeling, PRTN_G [3] [%] | Percentage inhibition of probe labeling, PRTN_E [4] [%] | Percentage inhibition of probe labeling, PRTN_C [5] [%] | Percentage inhibition of probe labeling, PRTN_F [6] [%] | Percentage inhibition of probe labeling, PRTN_D [7] [%] | Percentage inhibition of probe labeling, PRTN_B [8] [%] | Percentage inhibition of probe labeling, PRTN_A [9] [%] | Percentage inhibition of probe labeling, PRTN_H [10] [%] | Percentage inhibition of probe labeling, PRTN_K [11] [%] | also measured
69 | 71 | C=CC(=O)N1CCC(Cc2cccc(-c3ccccc3NC(C)=O)c2)CC1 | −1 | 21 | 12 | 9 | 3 | 7 | 8 | 8 | 8 | 2 | 20 | 
 |  | C=CC(=O)N1CC(Oc2ccc(Cl)cc2)C1 [Example A3] |  |  |  |  |  |  |  |  |  |  |  | inhibition at 7.8 µM [14, 21]: 12%; inhibition at 500 µM ([14]; 500 micromolar, cell lysate, 1 h, read-out: % inhibition of iodoacetamide probe labeling, Cys287): 96%; inhibition at 31.2 µM [14, 22]: 51%; inhibition at 125 µM [14, 22]: 80%; inhibition at 125 µM ([15]; 125 micromolar): 5%; inhibition at 500 µM ([15]; 500 micromolar): 3%; inhibition at 125 µM [16]: -6%; inhibition at 500 µM [17, 23]: 40%; inhibition at 31.2 µM [17]: 19%; inhibition at 125 µM [17]: 8%; inhibition at 500 µM [18, 23]: 31%; inhibition at 31.2 µM [18]: 6%; inhibition at 125 µM [18]: 19%; inhibition at 7.8 µM [19, 21]: 21%; inhibition at 500 µM ([19]; 500 micromolar, cell lysate, 1 h, read-out: % inhibition of iodoacetamide probe labeling, Cys318): 85%; inhibition at 31.2 µM ([19]; read-out: % inhibition of iodoacetamide probe labeling, Cys318, 31.2 micromolar, cell lysate, 1 h): 35%; inhibition at 125 µM ([19]; read-out: % inhibition of iodoacetamide probe labeling, Cys318, 125 micromolar, cell lysate, 1 h): 64%; inhibition at 500 µM [20, 23]: 15%; inhibition at 31.2 µM [20]: 7%; inhibition at 125 µM [20]: 21%
98 | 96 | CCc1ccccc1-c1cccc(NC2CCN(C(=O)/C=C/CC(C)C)CC2)c1 | 14 | 11 | 13 | 12 | 14 | 2 | 17 | 3 | 10 | 4 | 22 | 
97 | 98 | C=CC(=O)N1CCC(Nc2cc(C(N)=O)cc(-c3ccccc3CC)c2)CC1 | −1 | 7 | 6 | 8 | 19 | 4 | 18 | 0 | −2 | 6 | 12 | 
